# In PubChem BioAssay (NCI):
#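 Compound exposure: 48 hours, 5 concentrations, 96-well plates. TGI: total growth inhibition.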
# How the values were obtained:
# Assay in all cases: NCI tumour cell line growth inhibition, 48 h
# [1] = system: NCI-H226 lung
# [2] = system: U251 CNS
# [3] = system: A549 NSCLC
# [4] = system: MDA-MB-435
# [5] = system: HOP-92 NSCLC
# [6] = system: SK-MEL-5 melanoma
# [7] = system: M14 melanoma
# [8] = system: HCC-2998 colon
# [9] = system: MDA-MB-231 breast
# [10] = system: RPMI-8226 leukemia
# [11] = system: SK-MEL-28 melanoma
# [12] = system: NCI-H522 lung
# [13] = system: A498 renal
# [14] = system: MALME-3M melanoma
# [15] = system: SF-539 CNS
# [16] = system: T-47D breast
# [17] = system: EKVX NSCLC
# [18] = system: UO-31 renal
# [19] = system: CCRF-CEM leukemia
# [20] = system: SK-MEL-2 melanoma
# [21] = system: SF-295 CNS
# [22] = system: K-562 leukemia
# [23] = system: MCF7 breast
# [24] = system: HT29 colon
# [25] = system: 786-0 renal
# [26] = system: HCT-15 colon
# [27] = system: HL-60(TB) leukemia
# [28] = system: PC-3 prostate
# [29] = system: LOX IMVI melanoma
# [30] = system: OVCAR-4 ovarian
# [31] = system: IGROV1 ovarian
# [32] = system: CAKI-1 renal
# [33] = system: ACHN renal
# [34] = system: NCI/ADR-RES ovarian
# [35] = system: SNB-75 CNS
# [36] = system: SF-268 CNS
# [37] = system: SK-OV-3 ovarian
# [38] = system: RXF 393 renal
# [39] = system: MDA-N
# [40] = system: DU-145 prostate
# [41] = system: OVCAR-5 ovarian
# [42] = system: HOP-62 NSCLC
# [43] = system: COLO 205 colon
# [44] = system: OVCAR-3 ovarian
# [45] = system: UACC-62 melanoma
# [46] = system: SR leukemia
# [47] = system: NCI-H23 lung
# [48] = system: KM12 colon
# [49] = system: SNB-19 CNS
# [50] = system: UACC-257 melanoma
# [51] = system: SW-620 colon
# [52] = system: BT-549 breast
# [53] = system: HCT-116 colon
# [54] = system: TK-10 renal
# [55] = system: OVCAR-8 ovarian
# [56] = system: MOLT-4 leukemia
# [57] = system: HS 578T breast
# [58] = system: SN12C renal
# [59] = system: NCI-H460 lung
smiles,measurement,setting,value
CC1=C2NCN(C)N=C2C(C#N)(C#N)C1(C#N)C#N,TGI,[1],> 100 µM
same,TGI,[2],> 76.9 µM
same,TGI,[3],> 100 µM
same,TGI,[4],46.6 µM
same,TGI,[5],32 µM
same,TGI,[6],> 71.4 µM
same,TGI,[7],> 66.4 µM
same,TGI,[8],44.4 µM
same,TGI,[9],36.2 µM
same,TGI,[10],37.3 µM
same,TGI,[11],49.9 µM
same,TGI,[12],28.5 µM
same,TGI,[13],> 100 µM
same,TGI,[14],44.2 µM
same,TGI,[15],64.4 µM
same,TGI,[16],59 µM
same,TGI,[17],> 57.3 µM
same,TGI,[18],36.7 µM
same,TGI,[19],7.86 µM
same,TGI,[20],> 100 µM
same,TGI,[21],> 100 µM
same,TGI,[22],> 100 µM
same,TGI,[23],> 70.7 µM
same,TGI,[24],51.3 µM
same,TGI,[25],37.7 µM
same,TGI,[26],40.5 µM
same,TGI,[27],4.84 µM
same,TGI,[28],72.8 µM
same,TGI,[29],> 54.4 µM
same,TGI,[30],34.8 µM
same,TGI,[31],> 63 µM
same,TGI,[32],17.9 µM
same,TGI,[33],33 µM
same,TGI,[34],> 68.5 µM
same,TGI,[35],> 87.9 µM
same,TGI,[36],> 76.6 µM
same,TGI,[37],> 100 µM
same,TGI,[38],42.7 µM
same,TGI,[39],30 µM
same,TGI,[40],> 75 µM
same,TGI,[41],> 91.7 µM
same,TGI,[42],> 100 µM
same,TGI,[43],19.9 µM
same,TGI,[44],66.8 µM
same,TGI,[45],46.8 µM
same,TGI,[46],35.8 µM
same,TGI,[47],21.4 µM
same,TGI,[48],> 100 µM
same,TGI,[49],> 95.2 µM
same,TGI,[50],33.9 µM
same,TGI,[51],42.2 µM
same,TGI,[52],44.5 µM
same,TGI,[53],57.4 µM
same,TGI,[54],31 µM
same,TGI,[55],> 58.2 µM
same,TGI,[56],9.87 µM
same,TGI,[57],> 96.3 µM
same,TGI,[58],34.9 µM
O=C(/C=C/c1ccco1)c1cccc(C(=O)/C=C/c2ccco2)n1,TGI,[1],> 100 µM
same,TGI,[2],22.6 µM
same,TGI,[3],> 100 µM
same,TGI,[4],> 100 µM
same,TGI,[5],> 81.9 µM
same,TGI,[6],> 100 µM
same,TGI,[7],> 96.3 µM
same,TGI,[8],> 100 µM
same,TGI,[9],> 100 µM
same,TGI,[11],67.7 µM
same,TGI,[12],19.6 µM
same,TGI,[13],> 100 µM
same,TGI,[14],> 100 µM
same,TGI,[15],17.5 µM
same,TGI,[16],> 100 µM
same,TGI,[17],> 100 µM
same,TGI,[18],24.9 µM
same,TGI,[59],> 100 µM
same,TGI,[20],> 58.6 µM
same,TGI,[21],> 100 µM
same,TGI,[22],> 100 µM
same,TGI,[23],> 100 µM
same,TGI,[24],37.4 µM
same,TGI,[25],20.5 µM
same,TGI,[26],28.1 µM
same,TGI,[27],0.417 µM
same,TGI,[28],> 100 µM
same,TGI,[29],5.37 µM
same,TGI,[30],> 100 µM
same,TGI,[31],53.5 µM
same,TGI,[32],> 100 µM
same,TGI,[33],72.7 µM
same,TGI,[34],> 73.3 µM
same,TGI,[35],> 100 µM
same,TGI,[36],> 38.9 µM
same,TGI,[37],> 100 µM
same,TGI,[38],> 65.1 µM
same,TGI,[39],> 100 µM
same,TGI,[40],> 100 µM
same,TGI,[41],> 81.9 µM
same,TGI,[42],> 88.6 µM
same,TGI,[43],> 67.4 µM
same,TGI,[44],> 100 µM
same,TGI,[45],> 100 µM
same,TGI,[46],6.82 µM
same,TGI,[47],31.8 µM
same,TGI,[48],> 55.8 µM
same,TGI,[49],> 48.8 µM
same,TGI,[50],> 100 µM
same,TGI,[51],10.4 µM
same,TGI,[52],78.4 µM
same,TGI,[53],18.5 µM
same,TGI,[54],> 100 µM
same,TGI,[55],8.83 µM
same,TGI,[56],6.25 µM
same,TGI,[57],> 28.4 µM
same,TGI,[58],32 µM
CCCCCCCCCCCCCCCCS(=O)(=O)c1ccc(NN)cc1,TGI,[2],> 10 µM
same,TGI,[3],> 10 µM
same,TGI,[4],> 10 µM
same,TGI,[5],> 10 µM
same,TGI,[6],> 10 µM
same,TGI,[7],> 10 µM
same,TGI,[8],> 10 µM
same,TGI,[9],> 10 µM
same,TGI,[10],> 10 µM
same,TGI,[11],> 10 µM
same,TGI,[12],> 10 µM
same,TGI,[13],> 10 µM
same,TGI,[14],> 10 µM
same,TGI,[15],> 10 µM
same,TGI,[16],> 10 µM
same,TGI,[17],> 10 µM
same,TGI,[59],> 10 µM
same,TGI,[19],4.34 µM
same,TGI,[20],> 10 µM
same,TGI,[21],> 10 µM
same,TGI,[22],> 10 µM
same,TGI,[23],> 10 µM
same,TGI,[24],> 10 µM
same,TGI,[25],> 10 µM
same,TGI,[26],> 10 µM
same,TGI,[27],6.17 µM
same,TGI,[28],> 10 µM
same,TGI,[29],> 10 µM
same,TGI,[30],> 10 µM
same,TGI,[31],> 10 µM
same,TGI,[32],> 10 µM
same,TGI,[33],> 10 µM
same,TGI,[34],> 10 µM
same,TGI,[36],> 10 µM
same,TGI,[37],> 10 µM
same,TGI,[38],> 10 µM
same,TGI,[39],> 10 µM
same,TGI,[40],> 10 µM
same,TGI,[41],> 10 µM
same,TGI,[42],> 10 µM
same,TGI,[43],> 10 µM
same,TGI,[44],> 10 µM
same,TGI,[45],> 10 µM
same,TGI,[46],> 10 µM
same,TGI,[47],> 10 µM
same,TGI,[48],> 10 µM
same,TGI,[49],> 10 µM
same,TGI,[50],> 10 µM
same,TGI,[51],> 10 µM
same,TGI,[52],> 10 µM
same,TGI,[53],> 10 µM
same,TGI,[54],> 10 µM
same,TGI,[55],> 10 µM
same,TGI,[56],> 10 µM
same,TGI,[57],> 10 µM
same,TGI,[58],> 10 µM
